Measured values taken from EPA's ToxValDB 9.5 (doi:10.2903/j.efsa.2009.182r).

Key:
Apis mellifera = settings: acute; duration: 48 hours; oral; unspecified; mortality
Coturnix japonica = settings: acute; oral; mortality
Oncorhynchus mykiss = settings: acute; duration: 96 hours; mortality
Rattus norvegicus = settings: for NOAEL: inhalation
Tagia sp. = settings: acute; duration: 14 days; mortality
[1] = chronic, duration: 2 years, no effects
[2] = reproduction developmental, mortality
[3] = subchronic, duration: 90 days, no effects

SMILES	LD50 (Apis mellifera) [µg/piece]	LD50 (Coturnix japonica) [mg/kg-day]	LC50 (Oncorhynchus mykiss) [ng/mL]	LD50 (Rattus norvegicus; acute, oral, mortality) [mg/kg-day]	NOAEL (Rattus norvegicus; [1]) [mg/kg-day]	NOAEL (Rattus norvegicus; [2]) [mg/kg-day]	NOAEL (Rattus norvegicus; [3]) [mg/kg-day]	LC50 (Tagia sp.) [mg/kg]	NOAEL (Rattus norvegicus; developmental, duration: 10 days, development) [mg/kg-day]	NOAEL (Rattus norvegicus; subchronic, duration: 90 days, mortality) [mg/kg-day]
[Al+3].[P-3] [Aluminum phosphide]	0.24	49	4.68	8.7	1.1	1.9	1.1	664	–	–
P [Phosphine]	–	–	–	–	1.1	1.9	1.1	–	1.9	1.11
